# Like-named read-outs stand apart in the source and are kept apart here. Where no end group is shown, it is not given here.
# Tests used:
# [1] = system: δLight; details: neuron cultures; 100 μM ME then 1 mM naloxone
# [2] = molecular target: T1, κLight (Homo sapiens, UniProt P41145, INS261[…]/L259S/S262L/V164K); experiment: [3H]diprenorphine displacement binding, κLight cell membranes; details: read-out: κLight IC50
# T1 construct: TlcnC (telencephalin) tag (C); PRC tag (C); ER2 (ER export motif FCYENEV) tag (C); expressed in transfected cells; dissociated hippocampal neurons (AAV9-hSyn); mouse brain (AAV9-hSyn)
# [3] = molecular target: µLight (Homo sapiens, UniProt P35372, INS270[…]/V175Q); type: cell-based; details: for EC50: read-out: μLight EC50
# [4] = molecular target: T2, κLight1.3 (Homo sapiens, UniProt P41145, INS261[…]/L259S/S262L/V164K); type: cell-based; details: for EC50: read-out: κLight EC50
# T2 construct: TlcnC (telencephalin) tag (C); PRC tag (C); ER2 (ER export motif FCYENEV) tag (C); expressed in transfected cells; dissociated hippocampal neurons (AAV9-hSyn); mouse brain (AAV9-hSyn)
# Target sequence in this assay (P41145 with tags, fused parts or gaps V164K/L259S/INS261[withheld]/S262L): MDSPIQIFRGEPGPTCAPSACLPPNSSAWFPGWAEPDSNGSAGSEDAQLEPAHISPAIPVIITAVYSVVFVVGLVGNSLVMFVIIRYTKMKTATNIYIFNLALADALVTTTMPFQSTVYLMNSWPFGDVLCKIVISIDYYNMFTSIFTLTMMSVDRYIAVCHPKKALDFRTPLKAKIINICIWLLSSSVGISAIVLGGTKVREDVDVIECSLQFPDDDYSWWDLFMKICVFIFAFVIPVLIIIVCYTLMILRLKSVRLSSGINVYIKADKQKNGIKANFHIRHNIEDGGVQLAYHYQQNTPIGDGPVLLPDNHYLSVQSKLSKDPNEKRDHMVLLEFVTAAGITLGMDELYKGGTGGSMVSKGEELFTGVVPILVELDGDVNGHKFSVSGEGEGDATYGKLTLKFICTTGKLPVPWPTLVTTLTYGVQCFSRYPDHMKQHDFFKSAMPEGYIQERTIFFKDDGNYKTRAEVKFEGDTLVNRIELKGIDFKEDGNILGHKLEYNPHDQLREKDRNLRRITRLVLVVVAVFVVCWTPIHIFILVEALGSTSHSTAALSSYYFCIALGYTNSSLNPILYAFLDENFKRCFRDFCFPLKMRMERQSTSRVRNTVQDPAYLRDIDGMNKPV
# [5] = system: κLight1.3a; experiment: two-photon imaging of κLight1.3a response to electrical stimulation in hippocampal CA3 slices; set-up: species or system mouse; details: antagonist 100 µM, n = 3 slices
# [6] = molecular target: T2, κLight1.3; type: cell-based
# Target sequence in this assay (P41145 with tags, fused parts or gaps V164K/L259S/INS261[withheld]/S262L): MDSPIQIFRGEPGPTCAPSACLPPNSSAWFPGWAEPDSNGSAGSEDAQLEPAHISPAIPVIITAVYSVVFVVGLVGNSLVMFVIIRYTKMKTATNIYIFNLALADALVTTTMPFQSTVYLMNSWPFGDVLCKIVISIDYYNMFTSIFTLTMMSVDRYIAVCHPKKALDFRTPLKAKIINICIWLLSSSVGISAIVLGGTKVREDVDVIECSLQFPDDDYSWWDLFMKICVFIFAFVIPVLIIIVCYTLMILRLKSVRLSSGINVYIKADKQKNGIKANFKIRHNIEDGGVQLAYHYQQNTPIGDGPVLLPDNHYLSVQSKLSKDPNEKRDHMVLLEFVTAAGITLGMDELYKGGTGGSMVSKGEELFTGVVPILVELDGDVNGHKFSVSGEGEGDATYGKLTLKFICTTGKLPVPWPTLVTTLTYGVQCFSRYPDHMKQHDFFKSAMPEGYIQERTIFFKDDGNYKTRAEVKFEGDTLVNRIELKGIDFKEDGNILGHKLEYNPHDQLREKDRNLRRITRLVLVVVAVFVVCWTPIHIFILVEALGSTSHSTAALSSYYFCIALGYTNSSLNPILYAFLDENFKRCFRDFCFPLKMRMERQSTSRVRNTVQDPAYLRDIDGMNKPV
# [7] = system: κLight1.3a; experiment: in situ titration in dissociated hippocampal neurons expressing κLight1.3a; type: cell-based, human
# [8] = molecular target: T2, κLight1.3; type: cell-based; details: read-out: κLight1.3 EC50 in neurons; dissociated hippocampal neurons
# [9] = system: δLight; details: read-out: δLight EC50 in neurons; dissociated hippocampal neurons
# [10] = molecular target: µLight (Homo sapiens, UniProt P35372, V175Q); experiment: biochemical; type: binding
# [11] = molecular target: T3, δLight (Homo sapiens, UniProt P41143, G248L/INS249[…]/V154K); type: in vivo, mouse
# T3 construct: PRC tag (C); ER2 (ER export motif) tag (C); expressed in transfected cells; dissociated hippocampal neurons (AAV9-hSyn); mouse brain (AAV9-hSyn)
# Text: (§1) We next determined if κLight and δLight can be activated by systemic administration of exogenous small-molecule drugs in vivo. We injected AAV9-hSyn encoding κLight1.3 or δLight, and κLight0 or δLight0 in the arcuate nucleus (ARC) of the hypothalamus, hippocampal CA3 region[43] and NAc[30], areas abundant in κOR and δOR. We next implanted fiber-optic ferrules above each injection site and recorded the fluorescence of κLight and δLight upon intraperitoneal (i.p.) injection of opioid receptor-selective ligands using fiber photometry (Fig. 4a and Extended Data Fig. 4h–j).
# (§2) For fiber photometry studies, recordings were obtained throughout the entirety of drug injection, Pavlovian conditioning and head-fixed sessions as previously described. Before recording, an optic fiber was attached to the implanted fiber using a ferrule sleeve (Doric, ZR_2.5). Two LEDs were used to excite κLight1.3. […] Laser intensity for the 470-nm- and 405-nm-wavelength bands were measured at the tip of the optic fiber and adjusted to 50 μW before each day of recording. κLight1.3 fluorescence traveled through the same optic fiber before being bandpass filtered (525 ± 25 nm, Doric, FMC4), transduced by a femtowatt silicon photoreceiver (Newport, 2151) and recorded by a real-time processor (TDT, RZ5P). […]
# Custom MATLAB scripts were developed for analyzing fiber photometry data in the context of mouse behavior. […] After baseline correction, the photometry trace was z-scored relative to the mean and standard deviation of the session. The post-processed fiber photometry signal was analyzed in the context of animal behavior during Pavlovian conditioning and operant task performance. […] Peak, mean and minimum fluorescence was determined during predetermined time windows for the injection period (0–5 min), reward period (5–20 s), release period (0–20 s) or artifact period (0–20 s) subtracted from peak, mean or minimum fluorescence values in a baseline window (−5 to 0 s). […]
# [12] = molecular target: T4, δLight0 (Homo sapiens, UniProt P41143, D128N/G248L/INS249[…]/V154K); experiment: in vivo fiber photometry of control sensor δLight0 upon i.p. drug injection; set-up: species or system mouse; details: 5 mg/kg SNC162, n = 4 animals
# T4 construct: ER2 tag (ER export motif FCYENEV) (C); PRC (proximal restriction and clustering) tag, after a GS linker (C); expressed in transfected cells; host or cells: mouse brain neurons (ARC; NAc) transduced in vivo with AAV-hSyn-δLight0
# Text: as §1
# as §2, with “described.” for “described. Before recording, an optic fiber was attached to the implanted fiber using a ferrule sleeve (Doric, ZR_2.5). Two LEDs were used to excite κLight1.3.”
# Custom MATLAB scripts were developed for analyzing fiber photometry data in the context of mouse behavior. […] After baseline correction, the photometry trace was z-scored relative to the mean and standard deviation of the session. […]
# T3 sequence (P41143 with tags, fused parts or gaps, stated change not applied): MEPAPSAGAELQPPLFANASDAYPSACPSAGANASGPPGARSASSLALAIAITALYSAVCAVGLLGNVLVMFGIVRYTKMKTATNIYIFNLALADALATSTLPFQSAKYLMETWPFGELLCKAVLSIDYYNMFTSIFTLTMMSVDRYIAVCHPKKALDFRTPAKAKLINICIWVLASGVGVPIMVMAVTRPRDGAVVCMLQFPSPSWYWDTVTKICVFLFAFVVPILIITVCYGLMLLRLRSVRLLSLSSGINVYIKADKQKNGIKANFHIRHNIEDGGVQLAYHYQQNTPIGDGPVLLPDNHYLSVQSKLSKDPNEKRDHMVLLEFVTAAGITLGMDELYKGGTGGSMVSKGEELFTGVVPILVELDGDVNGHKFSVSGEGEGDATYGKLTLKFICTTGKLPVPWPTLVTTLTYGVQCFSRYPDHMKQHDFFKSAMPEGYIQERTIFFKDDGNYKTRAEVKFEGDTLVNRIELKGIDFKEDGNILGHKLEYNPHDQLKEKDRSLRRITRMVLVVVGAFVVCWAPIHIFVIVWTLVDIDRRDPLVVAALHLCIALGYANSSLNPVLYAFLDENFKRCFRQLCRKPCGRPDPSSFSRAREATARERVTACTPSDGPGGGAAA
# Sequence of µLight (Homo sapiens, UniProt P35372, INS270[…]/V175Q) (P35372 with tags, fused parts or gaps V175Q/INS270[withheld]): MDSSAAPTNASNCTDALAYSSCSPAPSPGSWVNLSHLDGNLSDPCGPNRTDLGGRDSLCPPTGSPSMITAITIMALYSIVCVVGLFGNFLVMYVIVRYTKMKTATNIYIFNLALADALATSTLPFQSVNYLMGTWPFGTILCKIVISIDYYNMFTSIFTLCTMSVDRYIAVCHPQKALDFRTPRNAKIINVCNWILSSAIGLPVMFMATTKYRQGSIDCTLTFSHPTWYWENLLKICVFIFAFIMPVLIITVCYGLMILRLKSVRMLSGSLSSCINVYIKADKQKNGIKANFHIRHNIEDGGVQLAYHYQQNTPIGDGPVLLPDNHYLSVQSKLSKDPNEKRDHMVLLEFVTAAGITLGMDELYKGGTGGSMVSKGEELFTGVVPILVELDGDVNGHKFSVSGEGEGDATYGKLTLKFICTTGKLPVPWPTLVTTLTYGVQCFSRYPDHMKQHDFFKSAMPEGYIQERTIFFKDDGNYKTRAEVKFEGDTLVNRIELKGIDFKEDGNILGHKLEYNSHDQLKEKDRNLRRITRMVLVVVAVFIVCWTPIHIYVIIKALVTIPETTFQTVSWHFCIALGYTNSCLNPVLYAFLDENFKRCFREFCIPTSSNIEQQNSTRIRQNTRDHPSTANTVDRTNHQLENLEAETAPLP
# Sequence of µLight (Homo sapiens, UniProt P35372, V175Q) (P35372 whole entry V175Q, looked up): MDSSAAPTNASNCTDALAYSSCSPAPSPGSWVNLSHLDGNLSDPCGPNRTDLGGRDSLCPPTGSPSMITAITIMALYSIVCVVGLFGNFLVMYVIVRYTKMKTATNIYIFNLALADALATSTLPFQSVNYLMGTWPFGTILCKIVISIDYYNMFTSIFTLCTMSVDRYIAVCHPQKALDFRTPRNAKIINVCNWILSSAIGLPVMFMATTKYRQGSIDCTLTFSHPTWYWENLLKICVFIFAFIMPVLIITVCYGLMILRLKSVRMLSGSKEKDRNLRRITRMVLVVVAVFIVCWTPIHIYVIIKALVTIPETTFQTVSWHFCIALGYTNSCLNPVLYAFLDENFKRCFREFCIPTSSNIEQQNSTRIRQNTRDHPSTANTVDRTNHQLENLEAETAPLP
# T4 sequence (P41143 with tags, fused parts or gaps, stated change not applied): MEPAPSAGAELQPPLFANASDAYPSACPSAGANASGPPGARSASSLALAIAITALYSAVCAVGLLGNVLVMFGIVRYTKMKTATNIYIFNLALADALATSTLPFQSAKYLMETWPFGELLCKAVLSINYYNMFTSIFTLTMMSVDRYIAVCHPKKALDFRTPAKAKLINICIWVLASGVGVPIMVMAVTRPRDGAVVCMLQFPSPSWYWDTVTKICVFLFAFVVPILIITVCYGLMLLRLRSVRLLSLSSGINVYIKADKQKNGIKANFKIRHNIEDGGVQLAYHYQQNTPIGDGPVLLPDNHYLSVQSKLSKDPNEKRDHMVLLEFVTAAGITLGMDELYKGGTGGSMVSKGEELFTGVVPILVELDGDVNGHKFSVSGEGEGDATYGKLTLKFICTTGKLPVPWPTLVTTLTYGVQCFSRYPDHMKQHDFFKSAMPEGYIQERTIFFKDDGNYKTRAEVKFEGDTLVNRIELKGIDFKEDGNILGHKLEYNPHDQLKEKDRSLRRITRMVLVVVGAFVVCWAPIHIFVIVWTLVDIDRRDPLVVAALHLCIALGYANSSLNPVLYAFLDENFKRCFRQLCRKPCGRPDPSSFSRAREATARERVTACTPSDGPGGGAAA
molecule,measurement,setting,value
C=CCN1CC[C@]23c4c5ccc(O)c4O[C@H]2C(=O)CC[C@@]3(O)[C@H]1C5 [naloxone],"δLight ΔF/F, + antagonist response",[1],1.82 ± 2.4%
YGGFLRKYP [β-neoendorphin],IC50,[2],13 ± 2 nM
same,EC50,[3],6310 nM
same,Normalized ΔF/F of κLight1.3,[4],0.26 ± 0.03
same,EC50,[4],25.9 nM
ICI 174864,peak ΔF/F of κLight1.3a to 15 electrical stimuli in presence of antagonist,[5],6.44% ± 0.3
same,antagonism of κLight activation by DynA13,[6],did not observe apparent antagonism
"CC[C@H](C)[C@H](NC(=O)[C@H](CCCNC(=N)N)NC(=O)[C@H](CCCNC(=N)N)NC(=O)[C@H](CC(C)C)NC(=O)[C@H](Cc1ccccc1)NC(=O)CNC(=O)CNC(=O)[C@@H](N)Cc1ccc(O)cc1)C(=O)N[C@@H](CCCNC(=N)N)C(=O)N1CCC[C@H]1C(=O)N[C@@H](CCCCN)C(=O)N[C@@H](CC(C)C)C(=O)N[C@@H](CCCCN)C(=O)O [DynA13, dynorphin A1-13]",EC50,[7],35.4 nM
same,EC50,[8],19.2 nM
same,EC50,[9],562 nM
same,EC50,[4],0.0898 nM
"YGGFLRRQF [DynB9, Dynorphin B9]",EC50,[3],3760 nM
same,Normalized ΔF/F of κLight1.3,[4],0.97 ± 0.03
same,EC50,[4],10 nM
CC(C)[C@H](NC(=O)[C@H](CC(=O)O)NC(=O)[C@H](Cc1ccccc1)NC(=O)[C@@H](C)NC(=O)[C@@H](N)Cc1ccc(O)cc1)C(=O)N[C@H](C(=O)NCC(N)=O)C(C)C [Deltorphin I],Normalized ΔF/F of κLight1.3,[4],0.26 ± 0.02
CC[C@H](C)[C@H](NC(=O)[C@H](C)NC(=O)[C@H](CC(N)=O)NC(=O)[C@H](CCCCN)NC(=O)[C@H](Cc1ccccc1)NC(=O)[C@H](CC(C)C)NC(=O)[C@@H](NC(=O)[C@@H](NC(=O)[C@H](CC(C)C)NC(=O)[C@@H]1CCCN1C(=O)[C@@H](NC(=O)[C@H](CCC(N)=O)NC(=O)[C@H](CO)NC(=O)[C@H](CCCCN)NC(=O)[C@H](CCC(=O)O)NC(=O)[C@H](CO)NC(=O)[C@@H](NC(=O)[C@H](CCSC)NC(=O)[C@H](Cc1ccccc1)NC(=O)CNC(=O)CNC(=O)[C@@H](N)Cc1ccc(O)cc1)[C@@H](C)O)[C@@H](C)O)C(C)C)[C@@H](C)O)C(=O)N[C@H](C(=O)N[C@@H](CCCCN)C(=O)N[C@@H](CC(N)=O)C(=O)N[C@@H](C)C(=O)N[C@@H](Cc1ccc(O)cc1)C(=O)N[C@@H](CCCCN)C(=O)N[C@@H](CCCCN)C(=O)NCC(=O)N[C@@H](CCC(=O)O)C(=O)O)[C@@H](C)CC [β-endorphin],μLight % bound at 10 μM,[10],46±3%
same,EC50,[7],2710 nM
same,EC50,[9],217 nM
same,Normalized ΔF/F of κLight1.3,[4],0.21 ± 0.01
YGGFMRRVGRPEWWMDYQ [BAM18],IC50,[10]; read-out: μLight IC50,14 ± 2 nM
same,IC50,[2],243 ± 2 nM
same,EC50,[3],186 nM
same,Normalized ΔF/F of κLight1.3,[4],0.48 ± 0.03
same,EC50,[4],35.6 nM
C=CCN1C[C@H](C)N([C@@H](c2ccccc2)c2ccc(C(=O)N(CC)CC)cc2)C[C@H]1C [SNC162],z-score peak of δLight,"[11]; ARC, SNC162 2.25 mg per kg",2.4 ± 1.0
same,z-score peak of δLight,"[11]; ARC, SNC162 5 mg per kg",7.28 ± 2.4
same,z-score peak of δLight,"[11]; NAc, SNC162 5 mg per kg",7.45 ± 2.20
same,peak z-score of δLight0,[12]; ARC (panel j),0.77 ± 0.5%
same,peak z-score of δLight0,[12]; ARC as printed (panel l),−0.61 ± 0.4%
same,μLight ΔF/F max (%),[3],2.9±1.69%
same,EC50,[3],87.3 nM
same,Normalized ΔF/F of κLight1.3,[4],0.009 ± 0.02
same,κLight ΔF/F max (%),[4],12.2±2.39%
same,EC50,[4],8280 nM
"CN(C(=O)/C=C/c1ccoc1)[C@@H]1CC[C@@]2(O)[C@H]3Cc4ccc(O)c5c4[C@@]2(CCN3CC2CC2)[C@H]1O5 [Nalfurafine, nalfurafine]",Normalized ΔF/F of κLight1.3,[4],1.91 ± 0.09
"CC(C)C[C@H](NC(=O)[C@H](Cc1ccccc1)NC(=O)CNC(=O)CNC(=O)[C@@H](N)Cc1ccc(O)cc1)C(=O)O [LE, Leu-enkephalin]",Normalized ΔF/F of κLight1.3,[4],0.24 ± 0.02
C[C@@H](NC(=O)[C@@H](N)Cc1ccc(O)cc1)C(=O)NCC(=O)N(C)[C@@H](Cc1ccccc1)C(=O)NCCO [DAMGO],μLight % bound at 10 μM,[10],79±3%
same,μLight ΔF/F max (%),[3],50.5±1.95%
same,Normalized ΔF/F of κLight1.3,[4],0.17 ± 0.03
"CSCC[C@H](NC(=O)[C@H](Cc1ccccc1)NC(=O)CNC(=O)CNC(=O)[C@@H](N)Cc1ccc(O)cc1)C(=O)O [ME, met-enkephalin]",IC50,[2],130 ± 3 nM
same,EC50,[7],9650 nM
same,EC50,[8],52100 nM
same,Normalized ΔF/F of κLight1.3,[4],0.18 ± 0.005
same,EC50,[4],6640 nM
"COc1ccc2c3c1O[C@H]1C(=O)CC[C@@]4(O)[C@@H](C2)N(C)CC[C@]314 [Oxycodone, oxycodone]",μLight % bound at 10 μM,[10],32±3%
same,µLight fluorescence response,[3],suppressed
same,μLight ΔF/F max (%),[3],-12.8±2.78%
same,Normalized ΔF/F of κLight1.3,[4],0.16 ± 0.04
"CC[C@H](C)[C@H](NC(=O)[C@H](CCCNC(=N)N)NC(=O)[C@H](CCCNC(=N)N)NC(=O)[C@H](CC(C)C)NC(=O)[C@H](Cc1ccccc1)NC(=O)CNC(=O)CNC(=O)[C@@H](N)Cc1ccc(O)cc1)C(=O)O [DynA8, dynorphin A1-8]",IC50,[10],48 ± 2 nM
same,μLight % bound at 10 μM,[10],58±2%
same,Normalized ΔF/F of κLight1.3,[4],0.61 ± 0.04
CC1(C)SSC(C)(C)[C@@H](NC(=O)[C@@H](N)Cc2ccc(O)cc2)C(=O)NCC(=O)N[C@@H](Cc2ccccc2)C(=O)N[C@H]1C(=O)O [DPDPE],Normalized ΔF/F of κLight1.3,[4],0.19 ± 0.04
same,κLight ΔF/F max (%),[4],20.5±1.67%
"Oc1ccc2c3c1O[C@H]1c4[nH]c5c(c4C[C@@]4(O)[C@@H](C2)N(CC2CC2)CC[C@]314)C[C@@]1(O)[C@H]2Cc3ccc(O)c4c3[C@@]1(CCN2CC1CC1)[C@H]5O4 [Nor-BNI, nor-binaltorphimine]",peak ΔF/F of κLight1.3a to 15 electrical stimuli in presence of antagonist,[5],1.57% ± 1.2
same,pA2 at κLight1.3,[6],8.28
YGGFMRRVGRPEWWMDYQKRYGGFL [Peptide E],μLight % bound at 10 μM,[10],65±2%
same,IC50,[10]; read-out: μLight IC50,154 ± 2 nM
same,IC50,[2],252 ± 2 nM

# — paper PMC11374718, “Unlocking opioid neuropeptide dynamics with genetically encoded biosensors” (Nature Neuroscience, 2024)
